In test [1] the target is BTK enzyme (recombinant full-length BTK, hBTK) (Homo sapiens (Human), UniProt Q06187). Briefly: BTK enzymatic activity LANCE TR-FRET assay. In kind it is biochemical. As to conditions: 50 pM hBTK, 25 μM ATP, 2 μM biotin-A5-peptide; compound range 1 μM to 0.017 nM; read-out: BTK binding IC50. In general terms: Time-resolved FRET reads energy transfer from a long-lived donor to a nearby acceptor.

Test [2] deals with adenosine uptake into HeLa cells. The experiment in a line: [3H]Adenosine uptake assay in HeLa cells. In kind it is cell-based. Particulars: [3H]adenosine accumulation in HeLa cells, compound range 10 μM to 0.032 nM, read-out: ADU inhibition IC50. The method in brief: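 HeLa cells in HBSS + 5% FBS were preincubated 30 min at ambient temperature with compound (ten-point 1:3 series, 10 µM–[…] final), then given [3H]adenosine (added as a 500 nM solution) for 60 min. Cell-associated label was read by scintillating-plate proximity counting; IC50 from 4-parameter fit of cps versus log concentration.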

SMILES strings stand for the structures. Like-named read-outs stand apart in the source and are kept apart here.

One may read the IC50 as the concentration at which inhibition is half-maximal.

Chain of BTK enzyme (recombinant full-length BTK, hBTK) (Q06187 whole entry): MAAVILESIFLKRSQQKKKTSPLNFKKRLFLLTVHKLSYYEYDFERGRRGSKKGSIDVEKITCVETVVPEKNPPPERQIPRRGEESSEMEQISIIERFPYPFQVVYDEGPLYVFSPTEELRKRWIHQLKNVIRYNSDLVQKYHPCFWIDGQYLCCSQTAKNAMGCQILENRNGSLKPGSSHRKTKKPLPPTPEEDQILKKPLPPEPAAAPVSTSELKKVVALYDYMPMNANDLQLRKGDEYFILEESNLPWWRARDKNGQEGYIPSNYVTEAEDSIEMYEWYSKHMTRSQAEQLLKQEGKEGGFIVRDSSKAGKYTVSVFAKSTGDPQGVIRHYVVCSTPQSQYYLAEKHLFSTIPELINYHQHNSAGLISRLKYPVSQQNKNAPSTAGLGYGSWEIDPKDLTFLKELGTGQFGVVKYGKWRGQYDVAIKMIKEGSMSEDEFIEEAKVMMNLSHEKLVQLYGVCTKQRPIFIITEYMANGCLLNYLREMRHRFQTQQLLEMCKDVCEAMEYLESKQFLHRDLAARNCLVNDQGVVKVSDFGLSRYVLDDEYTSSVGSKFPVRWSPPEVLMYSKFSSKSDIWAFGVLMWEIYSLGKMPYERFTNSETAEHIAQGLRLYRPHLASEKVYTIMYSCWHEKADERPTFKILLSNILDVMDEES

Consider `C[C@@](O)(c1ccc(-c2nc([C@H]3CC[C@@H]4N(C3)C(=O)CCC4(F)F)n3ccnc(N)c23)cc1)c1cccc(C(F)(F)F)c1` [Example 171, (7S,9aS)-7-[8-amino-1-(4-{(1R)-1-hydroxy-1-[3-(trifluoromethyl)phenyl]ethyl}phenyl)imidazo [1,5-a]pyrazin-3-yl]-1,1-difluorooctahydro-4H-quinolizin-4-one], for which the IC50 in test [1] came to 89 nM; in test [2] (Homo sapiens, HeLa), 7960 nM.

For the compound `C[C@@](O)(c1ccc(-c2nc([C@@H]3CC[C@@H]4[C@@H](C(F)(F)F)CC(=O)N4C3)n3ccnc(N)c23)cc1)c1cccc(C(F)(F)F)c1` [Example 172, (1S,6R,8aR)-6-[8-amino-1-(4-{(1R)-1-hydroxy-1-[3-(trifluoromethyl)phenyl]ethyl}phenyl)imidazo [1,5-a]pyrazin-3-yl]-1-(trifluoromethyl) hexahydroindolizin-3(2H)-one], the IC50 in test [1] amounted to 258 nM; in test [2] (Homo sapiens, HeLa), 5320 nM.

As to `C[C@@](O)(c1ccc(-c2nc([C@@H]3CC[C@H]4CCC(=O)N4C3)n3c(C(F)(F)F)cnc(N)c23)cc1)c1cccc(C(F)(F)F)c1` [Example 173, (6R,8aS)-6-[8-amino-1-(4-{(1R)-1-hydroxy-1-[3-(trifluoromethyl)phenyl]ethyl}phenyl)-5-(trifluoromethyl)imidazo [1,5-a]pyrazin-3-yl]hexahydroindolizin-3(2H)-one], the IC50 in test [1] was 22.2 nM; in test [2] (Homo sapiens, HeLa), 5110 nM.

With `C[C@@](O)(c1ccc(-c2nc([C@H]3CC[C@@H]4COCC(=O)N4C3)n3c(Cl)cnc(N)c23)cc1)c1cccc(C(F)(F)F)c1` [Example 174, (7S,9aR)-7-[8-amino-5-chloro-1-(4-{(1R)-1-hydroxy-1-[3-(trifluoromethyl)phenyl]ethyl}phenyl)imidazo [1,5-a]pyrazin-3-yl]hexahydropyrido[2,1-c][1,4]oxazin-4(3H)-one], the IC50 was determined as 85.7 nM in test [1] and 1160 nM in test [2] (Homo sapiens, HeLa).

Consider `C[C@@](O)(c1ccc(-c2nc([C@@H]3CC[C@H]4COCC(=O)N4C3)n3c(Cl)cnc(N)c23)cc1)c1cccc(C(F)(F)F)c1` [Example 175, (7R,9aS)-7-(8-amino-5-chloro-1-(4-{(1R)-1-hydroxy-1-[3-(trifluoromethyl)phenyl]ethyl}phenyl)imidazo [1,5-a]pyrazin-3-yl]hexahydropyrido[2,1-c][1,4]oxazin-4(3H)-one], for which the IC50 amounted to 1.5 nM in test [1] and 1380 nM in test [2] (Homo sapiens, HeLa).

Consider `C[C@@](O)(c1ccc(-c2nc([C@H]3CN4C(=O)COC[C@@H]4CO3)n3ccnc(N)c23)cc1)c1cccc(C(F)(F)F)c1` [Example 176, (7R,9aR)-7-[8-amino-1-(4-{(1R)-1-hydroxy-1-[3-(trifluoromethyl)phenyl]ethyl}phenyl)imidazo [1,5-a]pyrazin-3-yl]tetrahydro-1H-[1,4]oxazino[3,4-c][1,4]oxazin-4(3H)-one], for which the 50% inhibitory concentration (IC50) in test [1] is 7.5 nM; in test [2] (Homo sapiens, HeLa) it was 4270 nM.

As to `CC1(C)CC(=O)N2C[C@H](c3nc(-c4ccc([C@@](C)(O)c5cccc(C(F)F)c5)cc4)c4c(N)nccn34)CC[C@H]21` [Example 177, (6R,8aS)-6-[8-amino-1-(4-{(1R)-1-[3-(difluoromethyl)phenyl]-1-hydroxyethyl}phenyl)imidazo[1,5-a]pyrazin-3-yl]-1,1-dimethylhexahydroindolizin-3(2H)-one], the IC50 was determined as 0.1 nM in test [1] and 1830 nM in test [2] (Homo sapiens, HeLa).

For the compound `C[C@@](O)(c1ccc(-c2nc([C@@H]3CC[C@H]4C(C(F)(F)F)CC(=O)N4C3)n3ccnc(N)c23)cc1)c1cccc(C(F)(F)F)c1` (stereo partly drawn) [Example 179, (1R,6R,8aS)-6-[8-amino-1-(4-{(1R)-1-hydroxy-1-[3-(trifluoromethyl)phenyl]ethyl}phenyl)imidazo [1,5-a]pyrazin-3-yl]-1-(trifluoromethyl) hexahydroindolizin-3(2H)-one], the IC50 in test [1] was 3.5 nM; in test [2] (Homo sapiens, HeLa), 3300 nM.

Regarding `C[C@@](O)(c1ccc(-c2nc([C@@H]3CC[C@H]4C(C(F)(F)F)CC(=O)N4C3)n3ccnc(N)c23)cc1)c1cccc(C(F)(F)F)c1` (stereo partly drawn) [Example 180, (1R,6R,8aS)-6-[8-amino-1-(4-{(1R)-1-hydroxy-1-[3-(trifluoromethyl)phenyl]ethyl}phenyl)imidazo [1,5-a]pyrazin-3-yl]-1-(trifluoromethyl) hexahydroindolizin-3(2H)-one], the half-inhibitory concentration (IC50) in test [1] is 4.2 nM; in test [2], 2460 nM.

In the case of `CC1(C)C[C@@H]2CC[C@@H](c3nc(-c4ccc([C@@](C)(O)c5cccc(C(F)F)c5)cc4)c4c(N)nccn34)CN2C1=O` [Example 181, (6R,8aS)-6-[8-amino-1-(4-{(1R)-1-[3-(difluoromethyl)phenyl]-1-hydroxyethyl}phenyl)imidazo[1,5-a]pyrazin-3-yl]-2,2-dimethylhexahydroindolizin-3(2H)-one], the 50% inhibitory concentration (IC50) in test [1] was 0.2 nM; in test [2] (Homo sapiens, HeLa), 3620 nM.

Take `C[C@@](O)(c1ccc(-c2nc([C@@H]3CC[C@H]4C(C(F)(F)F)CC(=O)N4C3)n3ccnc(N)c23)cc1)c1cccc(C(F)F)c1` (stereo partly drawn) [Example 182, (1R,6R,8aS)-6-[8-amino-1-(4-{(1R)-1-[3-(difluoromethyl)phenyl]-1-hydroxyethyl}phenyl)imidazo[1,5-a]pyrazin-3-yl]-1-(trifluoromethyl) hexahydroindolizin-3(2H)-one]: the half-inhibitory concentration (IC50) was 0.43 nM in test [1] and 2800 nM in test [2] (Homo sapiens, HeLa).

In the case of `CC(O)(c1cccc(C(F)(F)F)c1)c1ccc(-c2nc([C@@H]3CC[C@H]4CCC(=O)N4C3)n3c(F)cnc(N)c23)c(F)c1` (stereo partly drawn) [Example 183, (6R,8aS)-6-[8-amino-5-fluoro-1-(2-fluoro-4-{1-hydroxy-1-[3-(trifluoromethyl)phenyl]ethyl}phenyl)imidazo [1,5-a]pyrazin-3-yl]hexahydroindolizin-3(2H)-one], the IC50 in test [1] amounted to 324 nM; in test [2], 561 nM.

With `C[C@@](O)(c1ccc(-c2nc([C@@H]3CC[C@H]4C(C(F)(F)F)CC(=O)N4C3)n3ccnc(N)c23)cc1)c1cccc(C(F)F)c1` (stereo partly drawn) [Example 184, (1R,6R,8aS)-6-[8-amino-1-(4-{(1R)-1-[3-(difluoromethyl)phenyl]-1-hydroxyethyl}phenyl)imidazo[1,5-a]pyrazin-3-yl]-1-(trifluoromethyl) hexahydroindolizin-3(2H)-one], the IC50 in test [1] turned out to be 1.4 nM; in test [2], 2660 nM.

In the case of `CC(O)(c1cccc(C(F)(F)F)c1)c1ccc(-c2nc([C@@H]3CC[C@H]4CCC(=O)N4C3)n3c(F)cnc(N)c23)c(F)c1` (stereo partly drawn) [Example 185, (6R,8aS)-6-[8-amino-5-fluoro-1-(2-fluoro-4-{1-hydroxy-1-[3-(trifluoromethyl)phenyl]ethyl}phenyl)imidazo [1,5-a]pyrazin-3-yl]hexahydroindolizin-3(2H)-one], the figures for the IC50 in test [1] and in test [2] were 5 nM and 2390 nM, respectively.

Take `CCOc1cc([C@@](C)(O)c2cccc(C(F)(F)F)c2)ccc1-c1nc([C@@H]2CC[C@@H]3N(C2)C(=O)CC3(C)C)n2ccnc(N)c12` [Example 186, (6R,8aS)-6-[8-amino-1-(2-ethoxy-4-{(1S)-1-hydroxy-1-[3-(trifluoromethyl)phenyl]ethyl}phenyl)imidazo [1,5-a]pyrazin-3-yl]-1,1-dimethylhexahydroindolizin-3(2H)-one]: the IC50 in test [1] amounted to 1.3 nM; in test [2] (Homo sapiens, HeLa), 3080 nM.

As for `CC1(C)OC(=O)N2C[C@H](c3nc(-c4ccc([C@@](C)(O)c5cccc(C(F)F)c5)cc4)c4c(N)nccn34)OC[C@H]21` [Example 187, (6R,8aS)-6-[8-amino-1-(4-{(1R)-1-[3-(difluoromethyl)phenyl]-1-hydroxyethyl}phenyl)imidazo[1,5-a]pyrazin-3-yl]-1,1-dimethyltetrahydro-1H-[1,3]oxazolo[4.3-c][1,4]oxazin-3-one], the 50% inhibitory concentration (IC50) was determined as 2.8 nM in test [1] and 2640 nM in test [2] (Homo sapiens, HeLa).

For `C[C@@](O)(c1ccc(-c2nc([C@@H]3CC[C@@H]4N(C3)C(=O)CC43CC3)n3ccnc(N)c23)cc1)c1cccc(C(F)(F)F)c1` [Example 188, (6′R,8a′S)-6′-[8-amino-1-(4-{(1R)-1-hydroxy-1-[3-(trifluoromethyl)phenyl]ethyl}phenyl)imidazo [1,5-a]pyrazin-3-yl]tetrahydro-5′H-spiro[cyclopropane-1,1′-indolizin]-3′(2′H)-one], the IC50 in test [1] was found to be 1.2 nM; in test [2] (Homo sapiens, HeLa), 2500 nM.

In the case of `C[C@@](O)(c1ccc(-c2nc([C@@H]3CC[C@@H]4N(C3)C(=O)CC43CC3)n3ccnc(N)c23)cc1)c1cccc(C(F)F)c1` [Example 189, (6′R,8a′S)-6′-[8-amino-1-(4-{(1R)-1-[3-(difluoromethyl)phenyl]-1-hydroxyethyl}phenyl)imidazo[1,5-a]pyrazin-3-yl]tetrahydro-5′H-spiro[cyclopropane-1,1′-indolizin]-3′(2′H)-one], the 50% inhibitory concentration (IC50) in test [1] came to 0.17 nM; in test [2] (Homo sapiens, HeLa), 2080 nM.

Regarding `CC(O)(c1cccc(C(F)(F)F)c1)c1ccc(-c2nc([C@@H]3CC[C@H]4CCC(=O)N4C3)n3c(Cl)cnc(N)c23)c(F)c1` (stereo partly drawn) [Example 190, (6R,8aS)-6-[8-amino-5-chloro-1-(2-fluoro-4-{1-hydroxy-1-[3-(trifluoromethyl)phenyl]ethyl}phenyl)imidazo [1,5-a]pyrazin-3-yl]hexahydroindolizin-3(2H)-one], the half-inhibitory concentration (IC50) worked out at 310 nM in test [1] and 316 nM in test [2].

As to `CC(O)(c1cccc(C(F)(F)F)c1)c1ccc(-c2nc([C@@H]3CC[C@@H]4N(C3)C(=O)CC4(C)C)n3ccnc(N)c23)c(F)c1` (stereo partly drawn) [Example 191, (6R,8aS)-6-[8-amino-1-(2-fluoro-4-{1-hydroxy-1-[3-(trifluoromethyl)phenyl]ethyl}phenyl)imidazo [1,5-a]pyrazin-3-yl]-1,1-dimethylhexahydroindolizin-3(2H)-one], the values for the IC50 in test [1] and in test [2] were 36.9 nM and 431 nM, respectively.

These data come from patent publication US10214546B2, “Btk inhibitors” (MERCK SHARP & DOHME CORP., priority 2014, dated 2019).
